Results reported in patent US7129250B2, “Neuroprotective and anti-proliferative compounds” (Aegera Therapeutics Inc., priority 2000, dated 2006).

Legend:
[1] = test system: CGNs; assay: Cisplatin Killing of CGNs; type: cell-based, CD1 mice; settings: for IC50: assayed 48 hours after final drug treatment
Description: Cisplatin has been used extensively in the treatment of various cancers. One dosblimiting side effect of this chemotherapeutic agent is related to hearing loss as a result of its toxicity to auditory neurons and loss of feeling in the extremities. Cisplatin induces apoptosis to both cultured CGN and cortical neurons.
CGNs were harvested from day 8/9 post-natal CD1 mice, plated on Poly-D-Lycine coated plates and incubated for 6 days at 37° C. under 5% CO2. The cells were treated with media containing drug and cisplatin […].

[2] = test system: CGNs; assay: High/Low Potassium (HK/LK) assay in CGNs; type: cell-based; settings: HK/LK switch, drug 24 h pre-treatment, assayed 16 h after media change, concentration at which cell death was inhibited by 50%
Description: Cultured CGNs which are maintained in a medium containing 26 mM potassium (high K^+ or HK) undergo cell death when the medium is changed to one containing 5 mM potassium (low K^+ or LK). HK maintains the cells in a highly polarized state, duplicating that of fully innervated neurons. The switch to LK (5 mM is more representative of physiological conditions) results in depolarization of the cells, mimicking the loss of neuronal conductivity. […] As these killer genes are turned on by various types of neuronal insult as observed in AD, PD, and stroke, HK/LK is a general in vitro model for neuronal degradation, blanketing a wide range of neurodegenerative diseases. Compounds that protect against HK/LK in CGNs would therefore be efficacious in treatment and/or prevention of various neurodegenerative disease states.
CGNs were harvested from day 8/9 post-natal CD1 mice, plated on Poly-D-Lycine coated plates and incubated for 6 days at 37° C., with […] potassium, under 5% CO2. Pretreated cells were treated with drug 24 hours prior to changing the media to one containing […] potassium and drug. Cells were assayed 16 hours after the final media change using cell TITER96 (Promega).

[3] = test system: HIAP1 mRNA in LAN5 cells; assay: LAN5 HAIP1 Down Regulators (RNA levels); type: cell-based; settings: HIAP1 RNA level vs control = 1.0; 24 hours drug
Description: LAN5 cells were grown in growth media. Cells were plated at cells 50,000 per well in 96 cells per 96 wells. Five days latter drug was added and the cells were liced 24 hours latter using RLT buffer.

[4] = test system: CGNs; assay: Ceramide Killing of CGNs; type: cell-based, CD1 mice; settings: ceramide 100 uM
From the text: Ceramide is a native […] found in most mammalian and human cells. The upregulation of endogenous ceramide has been linked to caspase 1 (ICE) induced apoptosis (Suzuki, A. et al. Exp. Cel. Res., 1997, 233, 41). In a similar fashion, the addition of ceramide to cultured CGNs results in caspase induced apoptosis, and is therefore considered an effective in vitro model for the various neurodegenerative diseases described above, which are characterized by caspase induced apoptosis, as observed in stroke models. Addition of selected compounds of the formula I through III, 24 hours prior to the addition of ceramide, to cultured CGNs provided protection against apoptosis, with 10 to 20% of the cells being saved at 1–10 μM drug concentrations (see Example 114).
CGNs were harvested from day 8/9 post-natal CD1 mice, plated on Poly-D-Lycine coated plates and incubated for 6 days at 37° C. under 5% CO2. Cells were pretreated with drug 24 hours prior to ceramide (100 uM) and drug addition.

[5] = test system: SHSY-5Y cells; assay: Etoposide Killing of SHSY-5Y; type: cell-based; settings: etoposide 32 uM
Description: SHSY-5Y cells were grown in growth media. Cells are placed at 50,000 cells per 96 well. Four days latter the cells were treated with drug for 48 hours prior to etoposide (32 uM) treatment. On day 6 media was changed to that containing etoposide and drug for 4 hours, at which point the media was changed to media containing drug only. Cells are allowed to survive overnight and then assessed for viability with metabolic activity measured (WST-1-Beohringer Mannheime), as shown in TABLE 13.

[6] = test system: Jurkat cells; assay: Killing of cultured Jurkats with and without anti-Fas; type: cell-based, Human; settings: for Survival % With Anti-Fas: with anti-Fas (5 ng/mL)
Description: Jurkats are a T-cell derived lymphoma cell line which expresses both FAS receptor and Fas-L. These cells, however, are only mildly sensitive to Fas-L/anti-Fas induced apoptosis. Select compounds were tested for their ability to kill Jurkats. Additionally, we investigated the ability of select compounds to sensitize the Jurkats to anti-Fas mediated apoptosis.
Human lymphoma jurkat cells were cultured in suspension in 24 well plates. Jurkat cell were treated with test compounds either alone or in the presence of suboptimal doses of anti-Fas antibody. After 18 hours of treatment cell death was assessed by Facs. Cells were incubated with propidium iodide and the percentage of cells that incorporated the stain was counted by Facs.

COc1ccc2c(ccn2C2=C(c3c[nH]c4ccccc34)C(=O)NC2=O)c1 [Compound 3, 3-(5-Methoxyindol-1-yl)-4-(1H-indol-3-yl)-1H-pyrrole-2,5-dione]
IC50 ([1]; Mus musculus): 10 µM

COc1ccc2c(c1)CC1c3[nH]c4ccccc4c3C3=C(C(=O)NC3=O)N21 (stereo not drawn) [Compound 34]
IC50 [2]: 10 µM
IC50 [1]: 10 µM

COc1ccc2c(c1)cc1c3[nH]c4ccccc4c3c3c(n21)C(=O)NC3=O [Compound 48]
IC50 [2]: 3 µM
IC50 [1]: 10 µM

O=C1C=C(c2c[nH]c3ccc(Br)cc23)C(=O)N1 [Compound 56, 3-(1H-5-bromoindol-3-yl)-1H-pyrrole-2,5-dione]
Fold Induction [3]: 0.31

O=C1C=C(c2cn(C(=O)c3ccccc3)c3ccc(Br)cc23)C(=O)N1 [Compound 59, 3-(N-benzoyl-5-bromoindol-3-yl)-1H-pyrrole-2,5-dione]
Fold Induction [3]: 0.40

Cc1ccc(S(=O)(=O)n2cc(C3=CC(=O)NC3=O)c3cc(Br)ccc32)cc1 [Compound 60, 3-(N-(p-toluenesulfoiiyl)-5-bromoindol-3-yl)-1H-pyrrole-2,5-dione]
IC50 [2]: 10 µM
Fold Induction [3]: 0.13

O=C1C=C(c2cn(S(=O)(=O)c3cccc4ccccc34)c3ccc(Br)cc23)C(=O)N1 [Compound 61, 3-(N-(1-naphthylenesulfonyl)-5-bromoindol-3-yl)-1H-pyrrole-2,5-dione]
% CGN Survival ([4]; drug 100 nM): 0%
% CGN Survival ([4]; drug 1 μM): 5.1%
Fold Induction [3]: 0.16

O=C1C=C(c2cn(S(=O)(=O)c3ccc4ccccc4c3)c3ccc(Br)cc23)C(=O)N1 [Compound 62, 3-(N-(2-naphthylenesulfonyl)-5-bromoindol-3-yl)-1H-pyrrole-2,5-dione]
Fold Induction [3]: 0.18

CN(C)c1cccc2c(S(=O)(=O)n3cc(C4=CC(=O)NC4=O)c4cc(Br)ccc43)cccc12 [Compound 63, 3-(N-dansyl-5-bromoindol-3-yl)-1H-pyrrole-2,5-dione]
Fold Induction [3]: 0.22

CC(C)(C)OC(=O)NCC(=O)n1cc(C2=CC(=O)NC2=O)c2cc(OCc3ccccc3)ccc21 [Compound 69, 3-(N-(N-Boc-2-aminoacetyl)-5-benzyloxyindol-3-yl)-1H-pyrrole-2,5-dione]
% SHSY-5Y cell survival ([5]; drug 1 μM): 5.6%

Cc1ccc(S(=O)(=O)n2cc(C3=CC(=O)NC3=O)c3cc(OCc4ccccc4)ccc32)cc1 [Compound 70, 3-(N-tosyl-5-benzyloxyindol-3-yl)-1H-pyrrole-2,5-dione]
% SHSY-5Y cell survival ([5]; drug 10 μM): 7.6%
Fold Induction [3]: 0.21

O=C1C=C(c2cn(S(=O)(=O)c3ccc([N+](=O)[O-])cc3)c3ccc(OCc4ccccc4)cc23)C(=O)N1 [Compound 71, 3-(N-(4-nitrobenzenesulfonyl)-5-benzyloxyindol-3-yl)-1H-pyrrole-2,5-dione]
% SHSY-5Y cell survival ([5]; drug 10 μM): 26.4%

O=C1C=C(c2cn(Cc3ccccc3)c3ccc(OCc4ccccc4)cc23)C(=O)N1 [Compound 73, 3-(N-benzyl-5-benzyloxyindol-3-yl)-1H-pyrrole-2,5-dione]
% SHSY-5Y cell survival ([5]; drug 10 μM): toxic

O=C1C=C(c2cn(Cc3ccc(F)cc3)c3ccc(OCc4ccccc4)cc23)C(=O)N1 [Compound 77, 3-(N-(4-fluorobenzyl)-5-benzyloxyindol-3-yl)-1H-pyrrole-2,5-dione]
IC50 ([2]; Mus musculus): 10 µM

O=C1C=C(c2cn(S(=O)(=O)c3ccccc3[N+](=O)[O-])c3ccccc23)C(=O)N1 [Compound 95, 3-(N-(2-nitrobenzenesulfonyl)indol-3-yl)-1H-pyrrole-2,5-dione]
IC50 ([2]; Mus musculus): 10 µM

O=C1C=C(c2cn(S(=O)(=O)c3ccc([N+](=O)[O-])cc3)c3ccccc23)C(=O)N1 [Compound 96, 3-(N-(4-nitrobenzenesulfonyl)indol-3-yl)-1H-pyrrole-2,5-dione]
IC50 ([2]; Mus musculus): 10 µM

O=C1C=C(c2c[nH]c3ccc(Cl)cc23)C(=O)N1 [Compound 99, 3-(1H-5-chloroindol-3-yl)-1H-pyrrole-2,5-dione]
% SHSY-5Y cell survival ([5]; drug 10 μM): 4.7%

O=C1NC(=O)C(n2ccc3ccccc32)=C1c1cn(CCCO)c2ccccc12 [Compound 121]
% SHSY-5Y cell survival ([5]; drug 1 μM): 5.5%

N=C(N)SCCCn1c2ccccc2c2c3c(n4c5ccccc5cc4c21)C(=O)NC3=O [Compound 145]
Survival % With Anti-Fas ([6]; compound dose 3 (μM)): 34.9%
Survival % Without Anti-Fas ([6]; compound dose 3 (μM)): 92.44%
Survival % Without Anti-Fas ([6]; compound dose 10 (μM)): 11%

Cc1cn(C2=C(c3cn(CCCSC(=N)N)c4ccccc34)C(=O)NC2=O)c2ccccc12 [Compound 146]
Survival % With Anti-Fas ([6]; compound dose 3 (μM)): 19.7%
Survival % Without Anti-Fas ([6]; compound dose 3 (μM)): >90%
Survival % Without Anti-Fas ([6]; compound dose 10 (μM)): 0%

N=C(N)SCCCn1cc(C2=C(n3ccc4cc(OCc5ccccc5)ccc43)C(=O)NC2=O)c2ccccc21 [Compound 147]
Survival % With Anti-Fas ([6]; compound dose 3 (μM)): 19.7%
Survival % Without Anti-Fas ([6]; compound dose 3 (μM)): >90%
Survival % Without Anti-Fas ([6]; compound dose 10 (μM)): 0%

N=C(N)SCCCn1cc(C2=C(n3ccc4ccccc43)C(=O)NC2=O)c2cc(OCc3ccccc3)ccc21 [Compound 148]
Survival % Without Anti-Fas ([6]; compound dose 3 (μM)): >90%
Survival % With Anti-Fas ([6]; compound dose 10 (μM)): 19.7%
Survival % Without Anti-Fas ([6]; compound dose 10 (μM)): 0%

Cc1cn(C2=C(c3cn(CCCSC(=N)N)c4ccc(OCc5ccccc5)cc34)C(=O)NC2=O)c2ccccc12 [Compound 149]
Survival % With Anti-Fas ([6]; compound dose 3 (μM)): 2.00%
Survival % Without Anti-Fas ([6]; compound dose 3 (μM)): >90%
Survival % Without Anti-Fas ([6]; compound dose 10 (μM)): 0%

Cc1cc2ccccc2n1C1=C(c2cn(CCCSC(=N)N)c3ccc(OCc4ccccc4)cc23)C(=O)NC1=O [Compound 150]
Survival % With Anti-Fas ([6]; compound dose 3 (μM)): 4.49%
Survival % Without Anti-Fas ([6]; compound dose 3 (μM)): >90%
Survival % Without Anti-Fas ([6]; compound dose 10 (μM)): 0%

N=C(N)SCCCn1cc(C2=C(N3CCc4ccccc43)C(=O)NC2=O)c2ccccc21 [Compound 159]
Survival % With Anti-Fas ([6]; compound dose 3 (μM)): 9.48%
Survival % Without Anti-Fas ([6]; compound dose 3 (μM)): >90%
Survival % Without Anti-Fas ([6]; compound dose 10 (μM)): 17.38%

Cn1cc(C2=C(n3cc(CCCSC(=N)N)c4ccccc43)C(=O)NC2=O)c2ccccc21 [Compound 167]
Survival % With Anti-Fas ([6]; compound dose 0.3 (μM)): 43.3%
Survival % Without Anti-Fas ([6]; compound dose 0.3 (μM)): 97.7%
Survival % With Anti-Fas ([6]; compound dose 1 (μM)): 16.7%
Survival % Without Anti-Fas ([6]; compound dose 1 (μM)): 88.3%
Survival % With Anti-Fas ([6]; compound dose 3 (μM)): 4.9%
Survival % Without Anti-Fas ([6]; compound dose 3 (μM)): 50.3%
Survival % With Anti-Fas ([6]; compound dose 10 (μM)): 0%
Survival % Without Anti-Fas ([6]; compound dose 10 (μM)): 0%
Survival % With Anti-Fas ([6]; compound dose 30 (μM)): 0%
Survival % Without Anti-Fas ([6]; compound dose 30 (μM)): 0%

Cn1cc(C2=C(n3cc(CCCSC(=N)N)c4ccccc43)C(=O)NC2=O)c2cc(OCc3ccccc3)ccc21 [Compound 168]
Survival % With Anti-Fas ([6]; compound dose 0.3 (μM)): 49.0%
Survival % Without Anti-Fas ([6]; compound dose 0.3 (μM)): 90.7%
Survival % With Anti-Fas ([6]; compound dose 1 (μM)): 48.6%
Survival % Without Anti-Fas ([6]; compound dose 1 (μM)): 89.3%
Survival % With Anti-Fas ([6]; compound dose 3 (μM)): 1%
Survival % Without Anti-Fas ([6]; compound dose 3 (μM)): 46.1%
Survival % With Anti-Fas ([6]; compound dose 10 (μM)): 0%
Survival % Without Anti-Fas ([6]; compound dose 10 (μM)): 1.2%
Survival % With Anti-Fas ([6]; compound dose 30 (μM)): 0%
Survival % Without Anti-Fas ([6]; compound dose 30 (μM)): 0%

COc1ccc2[nH]cc(CCNC(C)=O)c2c1 [melatonin, Melatonin, reference compound]
protection of CGNs ([1]; high doses): protect CGNs
